Data: article PMC6201272 (Journal of natural products, 2016)

Tests used:
[1] = test system: bacterial strains and cell lines of Table 3; test: Cytotoxity and antibacterial activity, all assays; type: cell-based
[2] = test system: human colorectal tumor cell line (HCT-116); test: Cytotoxicity against human colorectal tumor cell line HCT-116; type: cell-based; settings: maximum tested concentration 50 μg/mL
C. albicans ATCC 28517 = test: MIC determination, C. albicans ATCC 28517; type: cell-based
E. coli ATCC 25922 = test: MIC determination; type: cell-based, Escherichia coli; settings: for Minimum inhibitory concentration, E. coli ATCC 25922: MIC, duplicate, at least two independent experiments
E.faecium ATCC 51299 = test: MIC determination; type: cell-based, Enterococcus faecium; settings: duplicate, at least two independent experiments
S. aureus ATCC 29213 = test: MIC determination; type: cell-based, Staphylococcus aureus; settings: duplicate, at least two independent experiments
P. aeruginosa ATCC 27853 = test: MIC determination, P. aeruginosa ATCC 27853; type: cell-based
S. aureus ATCC 43300 = test: MIC determination; type: cell-based, Staphylococcus aureus; settings: duplicate, at least two independent experiments
E.faecium ATCC 29212 = test: MIC determination; type: cell-based, Enterococcus faecium; settings: duplicate, at least two independent experiments
[3] = test system: monkey kidney cell line (BSC-1); test: Cytotoxicity against monkey kidney cell line BSC-1; type: cell-based
[4] = test system: bacteria (broad-spectrum); settings: cited from earlier work

Compound | Cytotoxity and antibacterial activity in all assays (in words) [1] | Toxicity against HCT-116 (in words) [2] | Minimum inhibitory concentration, C. albicans ATCC 28517 (C. albicans ATCC 28517) [µg/mL] | Minimum inhibitory concentration, E. coli ATCC 25922 (E. coli ATCC 25922) [µg/mL] | Minimum inhibitory concentration, E.faecium ATCC 51299 (E.faecium ATCC 51299) [µg/mL] | Minimum inhibitory concentration, S. aureus ATCC 29213 (S. aureus ATCC 29213) [µg/mL] | Minimum inhibitory concentration, P. aeruginosa ATCC 27853 (P. aeruginosa ATCC 27853) [µg/mL] | Minimum inhibitory concentration, S. aureus ATCC 43300 (S. aureus ATCC 43300) [µg/mL] | Minimum inhibitory concentration, E.faecium ATCC 29212 (E.faecium ATCC 29212) [µg/mL] | Cytotoxicity Bsc-1 (IC50) [3] [µg/mL] | Inhibition of growth of E. coli (in words) (E. coli ATCC 25922; authors' antimicrobial assays) | Antibacterial activity previously reported (in words) [4]
COc1c(Br)cc(Br)cc1Oc1c(Br)c(OC)c(Br)c(Br)c1OC [Compound 8a, 1-(3′,5′,6′-Tribromo-1′,4′-dimethoxy-1′-phenoxy)-3,5-dibromo-2-methoxybenzene] | inactive in all assays | nontoxic | – | – | – | – | – | – | – | – | – | –
1-(3′,4′,6′-Tribromo-1′-methoxyphenoxy)-3,5-dibromo-2-methoxybenzene [Compound 3a] | – | – | >50 | >50 | >50 | >50 | >50 | >50 | 50 | >50 | – | –
Oc1c(Br)cc(Br)cc1Oc1ccc(Br)cc1Br [Compound 10] | – | – | – | – | – | – | – | – | – | – | did not inhibit the growth | broad-spectrum antibacterial activity
1-(4′,5′,6′-Tribromo-1′-methoxyphenoxy)-3,5-dibromo-2-methoxybenzene [Compound 5a] | – | – | >50 | >50 | >50 | >50 | >50 | >50 | >50 | >50 | – | –
